In data set [1] the test system is Candida albicans. Kind of data set: Synergistic antifungal activity against FLC-resistant Candida albicans 17 assessed as fungal growth inhibition incubated for 48 hrs in presence of FLC by broth microdilution method. It counts as functional.
Data set [2] deals with Candida albicans. Put plainly: Synergistic antifungal activity against FLC-resistant Candida albicans 512644 assessed as MIC of FLC incubated for 48 hrs by broth microdilution method. It counts as functional.
Data set [3] relates to Candida albicans. Kind of data set: Synergistic antifungal activity against FLC-resistant Candida albicans 512644 assessed as fungal growth inhibition incubated for 48 hrs in presence of FLC by broth microdilution method. It counts as functional. A general note: Broth dilution looks for growth in wells or tubes with falling amounts of substance.
Data set [4] relates to Candida albicans. Kind of data set: Synergistic antifungal activity against FLC-resistant Candida albicans 605141 assessed as MIC of FLC incubated for 48 hrs by broth microdilution method. It counts as functional.
Data set [5] deals with Candida albicans. Put plainly: Synergistic antifungal activity against FLC-resistant Candida albicans 5740 assessed as fractional inhibitory concentration index incubated for 48 hrs in presence of FLC by broth microdilution method. It is filed as functional.
A short description of data set [6]: Tmax in Sprague-Dawley rat at 5 mg/kg, po by LC-MS/MS analysis. It is filed as ADME, organism-based. The settings on record: in vivo.
For data set [7], the system named is Candida albicans. Kind of data set: Synergistic antifungal activity against FLC-resistant Candida albicans 540 assessed as MIC of FLC incubated for 48 hrs by broth microdilution method. It is filed as functional.
The test system of data set [8] is Candida albicans. Kind of data set: Synergistic antifungal activity against FLC-resistant Candida albicans 305 assessed as MIC of FLC incubated for 48 hrs by broth microdilution method. It is filed as functional.
Data set [9] relates to Candida albicans. Kind of data set: Synergistic antifungal activity against FLC-resistant Candida albicans 385 assessed as fungal growth inhibition incubated for 48 hrs in presence of FLC by broth microdilution method. It counts as functional.
Data set [10] deals with Candida albicans. Put plainly: Synergistic antifungal activity against FLC-resistant Candida albicans 512644 assessed as fractional inhibitory concentration index incubated for 48 hrs in presence of FLC by broth microdilution method. It counts as functional.
The subject of data set [11] is Candida albicans. Kind of data set: Synergistic antifungal activity against FLC-resistant Candida albicans 1221 assessed as MIC of FLC incubated for 48 hrs by broth microdilution method. It counts as functional.
The subject of data set [12] is Candida albicans. Kind of data set: Inhibition of biofilm formation of Candida albicans SC5314 at 16 ug/ml incubated for 24 hrs by XTT assay relative to control. It is filed as functional.
In data set [13] the test system is Candida albicans. Kind of data set: Inhibition of hypha formation in Candida albicans SC5314 at 8 to 16 ug/ml incubated for 3 hrs by inverted phase contrast microscopy. The note with it: dose 8-16 µg/ml. It counts as functional, organism-based.
Data set [14] has as its system Candida albicans. Put plainly: Synergistic antifungal activity against FLC-resistant Candida albicans 395 assessed as fungal growth inhibition incubated for 48 hrs in presence of FLC by broth microdilution method. It counts as functional.
Data set [15] deals with Candida albicans. Kind of data set: Synergistic antifungal activity against FLC-resistant Candida albicans 953 assessed as fractional inhibitory concentration index incubated for 48 hrs in presence of FLC by broth microdilution method. It is filed as functional.
Data set [16] concerns Candida albicans. Kind of data set: Synergistic antifungal activity against FLC-resistant Candida albicans 646 assessed as fungal growth inhibition incubated for 48 hrs in presence of FLC by broth microdilution method. It is filed as functional.
The subject of data set [17] is Candida albicans. Kind of data set: Synergistic antifungal activity against FLC-resistant Candida albicans 605141 assessed as fungal growth inhibition incubated for 48 hrs in presence of FLC by broth microdilution method. It counts as functional.
The test system of data set [18] is Candida albicans. Kind of data set: Synergistic antifungal activity against FLC-resistant Candida albicans 538 assessed as fractional inhibitory concentration index incubated for 48 hrs in presence of FLC by broth microdilution method. It is filed as functional.
Data set [19] deals with Candida albicans. Put plainly: Synergistic inhibition of biofilm formation of Candida albicans SC5314 at 0.5 ug/ml incubated for 24 hrs in presence of 1 ug/ml of FLC by XTT assay relative to control. It counts as functional. (Tetrazolium dyes change colour on reduction, which living cells bring about.)
Data set [20] concerns Candida albicans. Kind of data set: Synergistic antifungal activity against FLC-resistant Candida albicans 395 assessed as MIC of FLC incubated for 48 hrs by broth microdilution method. It is filed as functional.
In data set [21] the test system is Candida albicans. Kind of data set: Synergistic antifungal activity against FLC-resistant Candida albicans 100 assessed as fractional inhibitory concentration index incubated for 48 hrs in presence of FLC by broth microdilution method. It counts as functional.
Data set [22] deals with Candida albicans. Put plainly: Synergistic antifungal activity against FLC-resistant Candida albicans 12 assessed as MIC of FLC incubated for 48 hrs by broth microdilution method. It counts as functional.
In data set [23] the test system is Candida albicans. Put plainly: Synergistic antifungal activity against FLC-resistant Candida albicans 10 assessed as fungal growth inhibition incubated for 48 hrs in presence of FLC by broth microdilution method. It is filed as functional.
For data set [24], the system named is Candida albicans. Kind of data set: Synergistic antifungal activity against FLC-resistant Candida albicans 646 assessed as fractional inhibitory concentration index incubated for 48 hrs in presence of FLC by broth microdilution method. It is filed as functional.
The test system of data set [25] is Candida albicans. Put plainly: Synergistic antifungal activity against FLC-resistant Candida albicans 1221 assessed as fractional inhibitory concentration index incubated for 48 hrs in presence of FLC by broth microdilution method. It counts as functional.
Data set [26] in a line: Half life in Sprague-Dawley rat at 5 mg/kg, po by LC-MS/MS analysis. It counts as ADME, organism-based. The note with it: in vivo.
In data set [27] the test system is Candida albicans. Kind of data set: Synergistic antifungal activity against FLC-resistant Candida albicans 819 assessed as MIC of FLC incubated for 48 hrs by broth microdilution method. It counts as functional.
Data set [28] deals with Voltage-gated inwardly rectifying potassium channel KCNH2 (Homo sapiens, UniProt Q12809). Kind of data set: Inhibition of hERG measured for 120 secs by electrophysiological method. It counts as toxicity. The settings on record: 2 min, time 120 sec.
Data set [29] has as its system Candida albicans. Put plainly: Synergistic antifungal activity against FLC-resistant Candida albicans 379 assessed as fractional inhibitory concentration index incubated for 48 hrs in presence of FLC by broth microdilution method. It is filed as functional.
For data set [30], the system named is Candida albicans. Kind of data set: Synergistic antifungal activity against FLC-resistant Candida albicans 8 assessed as fractional inhibitory concentration index incubated for 48 hrs in presence of FLC by broth microdilution method. It counts as functional.
For data set [31], the system named is Candida albicans. Put plainly: Synergistic antifungal activity against FLC-resistant Candida albicans 100 assessed as MIC of FLC incubated for 48 hrs by broth microdilution method. It is filed as functional.
For data set [32], the system named is Candida albicans. Put plainly: Synergistic antifungal activity against FLC-resistant Candida albicans 64548 assessed as fractional inhibitory concentration index incubated for 48 hrs in presence of FLC by broth microdilution method. It counts as functional.
In data set [33] the test system is Candida albicans. Put plainly: Synergistic antifungal activity against FLC-resistant Candida albicans 710452 assessed as fungal growth inhibition incubated for 48 hrs in presence of FLC by broth microdilution method. It counts as functional.
The test system of data set [34] is Candida albicans. Put plainly: Synergistic antifungal activity against FLC-resistant Candida albicans 710554 assessed as fractional inhibitory concentration index incubated for 48 hrs in presence of FLC by broth microdilution method. It is filed as functional.
Data set [35] deals with Candida albicans. Kind of data set: Synergistic antifungal activity against FLC-resistant Candida albicans 64548 assessed as fungal growth inhibition incubated for 48 hrs in presence of FLC by broth microdilution method. It counts as functional.
Data set [36] concerns Candida albicans. Put plainly: Synergistic antifungal activity against FLC-resistant Candida albicans 100 assessed as fungal growth inhibition incubated for 48 hrs in presence of FLC by broth microdilution method. It counts as functional.
Data set [37] has as its system Candida albicans. Kind of data set: Synergistic antifungal activity against FLC-resistant Candida albicans 304103 assessed as fungal growth inhibition incubated for 48 hrs in presence of FLC by broth microdilution method. It counts as functional.
In data set [38] the test system is Candida albicans. Kind of data set: Synergistic antifungal activity against FLC-resistant Candida albicans 710506 assessed as fungal growth inhibition incubated for 48 hrs in presence of FLC by broth microdilution method. It counts as functional.
Data set [39] relates to Candida albicans. Kind of data set: Synergistic antifungal activity against FLC-resistant Candida albicans 710506 assessed as fractional inhibitory concentration index incubated for 48 hrs in presence of FLC by broth microdilution method. It counts as functional.
The subject of data set [40] is Candida albicans. Kind of data set: Inhibition of biofilm formation of Candida albicans SC5314 incubated for 24 hrs by XTT assay. It is filed as functional, organism-based. The note with it: dose <= 16.0 µg/ml.

The source of these data is ChEMBL document CHEMBL5375952, “Discovery of Novel 8-Hydroxyquinoline Derivatives with Potent In Vitro and In Vivo Antifungal Activity” (J Med Chem, 2023).

Activity calls are given as the source filed them.

Chain of Voltage-gated inwardly rectifying potassium channel KCNH2 (Q12809 whole entry): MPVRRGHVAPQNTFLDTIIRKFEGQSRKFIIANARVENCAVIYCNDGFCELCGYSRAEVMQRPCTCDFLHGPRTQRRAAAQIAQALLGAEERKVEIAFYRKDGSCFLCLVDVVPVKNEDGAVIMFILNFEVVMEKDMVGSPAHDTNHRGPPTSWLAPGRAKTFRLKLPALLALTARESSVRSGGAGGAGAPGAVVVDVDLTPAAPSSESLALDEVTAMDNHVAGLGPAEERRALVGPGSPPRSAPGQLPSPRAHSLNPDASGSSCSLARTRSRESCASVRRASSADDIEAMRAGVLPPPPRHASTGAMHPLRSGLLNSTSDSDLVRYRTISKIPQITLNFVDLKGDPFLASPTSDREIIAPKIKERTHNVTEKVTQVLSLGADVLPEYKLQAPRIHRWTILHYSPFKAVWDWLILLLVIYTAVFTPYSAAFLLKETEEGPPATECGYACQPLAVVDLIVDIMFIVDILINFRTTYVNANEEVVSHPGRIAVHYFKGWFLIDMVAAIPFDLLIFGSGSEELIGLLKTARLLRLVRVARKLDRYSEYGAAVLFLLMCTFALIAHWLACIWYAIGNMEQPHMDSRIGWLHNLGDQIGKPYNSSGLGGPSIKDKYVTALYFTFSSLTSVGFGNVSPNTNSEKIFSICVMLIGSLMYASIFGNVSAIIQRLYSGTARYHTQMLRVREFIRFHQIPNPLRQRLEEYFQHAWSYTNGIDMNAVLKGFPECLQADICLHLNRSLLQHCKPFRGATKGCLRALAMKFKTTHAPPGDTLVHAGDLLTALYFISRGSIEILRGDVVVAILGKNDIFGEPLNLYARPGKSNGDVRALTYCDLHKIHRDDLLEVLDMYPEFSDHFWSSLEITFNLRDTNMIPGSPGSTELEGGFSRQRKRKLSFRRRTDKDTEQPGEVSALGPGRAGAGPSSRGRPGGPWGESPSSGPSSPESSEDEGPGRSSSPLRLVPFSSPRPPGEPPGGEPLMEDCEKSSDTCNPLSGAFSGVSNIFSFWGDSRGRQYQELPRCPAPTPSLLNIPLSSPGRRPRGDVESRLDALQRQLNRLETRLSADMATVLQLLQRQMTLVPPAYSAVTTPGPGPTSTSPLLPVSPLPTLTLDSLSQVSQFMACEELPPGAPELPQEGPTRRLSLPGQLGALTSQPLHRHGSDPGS

The MIC is the lowest concentration found to suppress growth. The term Tmax denotes the time at which the peak concentration occurs. A word on the inhibition: it is how much of the control response was suppressed. Broadly, the half-life is the time needed for the level to fall by half in the phase considered. Take `CCN(CC)c1ccc(C(NC(=O)C(C)C)c2ccc3cccnc3c2O)cc1` (stereo not given): the minimal inhibitory concentration (MIC) was 0.016 µg/mL in the data set on Candida albicans [1]; 2 µg/mL with Candida albicans [2]; 0.008 µg/mL with Candida albicans [3]; 0.125 µg/mL with Candida albicans [4]; 0.25 µg/mL with Candida albicans [7]; 1 µg/mL in the data set on Candida albicans [8]. Further, the MIC was 0.008 µg/mL in the data set with Candida albicans [9]; 0.125 µg/mL in the data set with Candida albicans [11]; 0.016 µg/mL with Candida albicans [14]; 0.016 µg/mL with Candida albicans [16]; 0.031 µg/mL with Candida albicans [17]; 0.25 µg/mL in the data set on Candida albicans [20]. For the same molecule, the MIC with Candida albicans [22] worked out at 1 µg/mL; in the data set with Candida albicans [23], 0.008 µg/mL; in the data set on Candida albicans [27], 0.25 µg/mL; in the data set with Candida albicans [31], 0.25 µg/mL; with Candida albicans [33], 0.016 µg/mL; in the data set on Candida albicans [35], 0.031 µg/mL. Further, the MIC in the data set with Candida albicans [36] was determined as 0.016 µg/mL; in the data set with Candida albicans [37] it was 0.008 µg/mL; with Candida albicans [38] it was 0.031 µg/mL. Also, the “fractional inhibitory concentration index (FICI)” value amounted to 0.312 in the data set with Candida albicans [5]; 0.047 in the data set on Candida albicans [10]; 0.032 with Candida albicans [15]; 0.047 in the data set with Candida albicans [18]; 0.14 in the data set with Candida albicans [21]; 0.133 in the data set on Candida albicans [24]. The “fractional inhibitory concentration index (FICI)” value is listed as 0.126 with Candida albicans [25]; 0.039 with Candida albicans [29]; 0.252 with Candida albicans [30]; 0.063 in the data set on Candida albicans [32]; 0.066 with Candida albicans [34]; 0.035 in the data set on Candida albicans [39]. The Tmax in data set [6] was 15 min. In the data set with Candida albicans [12], this molecule yielded an inhibition at 16 µg/mL of 29.8%. The inhibition entry in the data set on Candida albicans [13] was “Active”. The inhibition at 0.5 µg/mL in the data set with Candida albicans [19] turned out to be 48.7%. The same molecule gave a half-life in [26] of 60 min. In [28], this molecule gave an INH of over 50 µM.
Regarding `OC(Cn1cncn1)(Cn1cncn1)c1ccc(F)cc1F` [FLUCONAZOLE], in the data set with Candida albicans [40], the inhibition result is “Dose-Dependent Effect”.
